Among the data in DBAASP are MIC values, retold here.

For orientation: MIC means the lowest concentration found to suppress growth.

In brackets after ≈: the same amount, converted by molar mass. Bounds are passed on as bounds.

Assay in all cases: ≥ marks a high value that may be exact or a test limit, other limits are often not marked, values filed in µg/mL are converted to µM
The subject of one assay is Streptococcus mutans.
Assay [1] concerns Bacillus subtilis KCTC 3068.
The subject of assay [2] is Staphylococcus aureus KCTC 1621.
Assay [3] deals with Escherichia coli KCTC 1682.
The test system of assay [4] is Staphylococcus epidermidis KCTC 1917.
Assay [5] deals with Salmonella typhimurium KCTC 1926.
In assay [6] the test system is Pseudomonas aeruginosa KCTC 1637.
Assay [7] relates to Pseudomonas aeruginosa PAO1.
The test system of assay [8] is Staphylococcus aureus ATCC 43300.
Assay [9] deals with Escherichia coli ATCC 25922.
The test system of assay [10] is Pseudomonas aeruginosa CMCCB 10104.
Assay [11] has as its system Candida albicans ATCC 2002.
Assay [12] relates to Staphylococcus aureus ATCC 25923.

Turning to `CC[C@H](C)[C@H](N)C(=O)N[C@@H](CCCCN)C(=O)N[C@H](C(=O)N[C@@H](CC(C)C)C(=O)N[C@@H](CC(C)C)C(=O)N[C@@H](Cc1cnc[nH]1)C(=O)N[C@@H](Cc1ccccc1)C(=O)N[C@@H](Cc1ccccc1)C(=O)N[C@@H](CCC(N)=O)C(=O)N[C@@H](CCCN=C(N)N)C(=O)N[C@@H](Cc1ccccc1)C(N)=O)[C@@H](C)O` [IKTLLHFFQRF], the MIC in the assay with Streptococcus mutans was 30.8 µM (≈ 44.7 µg/mL).
As to `CC(C)C[C@H](NC(=O)[C@H](Cc1ccc(O)cc1)NC(=O)[C@H](Cc1cnc[nH]1)NC(=O)[C@@H](NC(=O)[C@H](CC(C)C)NC(=O)[C@H](C)NC(=O)[C@H](C)NC(=O)[C@H](CCCCN)NC(=O)[C@H](C)NC(=O)[C@@H](NC(=O)[C@H](Cc1cnc[nH]1)NC(=O)[C@H](CCCCN)NC(=O)CNC(=O)[C@@H](NC(=O)[C@H](Cc1cnc[nH]1)NC(=O)[C@H](C)NC(=O)[C@H](C)NC(=O)[C@H](CCCCN)NC(=O)[C@H](CCCCN)NC(=O)[C@H](Cc1ccccc1)NC(=O)[C@H](Cc1ccccc1)NC(=O)[C@H](CO)NC(=O)CNC(=O)[C@H](Cc1c[nH]c2ccccc12)NC(=O)CN)C(C)C)C(C)C)[C@@H](C)O)C(=O)O` [GWGSFFKKAAHVGKHVAKAALTHYL], the MIC is 2 µM (≈ 5.45 µg/mL) in [1]; 1 µM (≈ 2.73 µg/mL) in [2]; 2 µM (≈ 5.45 µg/mL) in assay [3]; 1 µM (≈ 2.73 µg/mL) in assay [4]; 2 µM (≈ 5.45 µg/mL) in assay [5]; 2 µM (≈ 5.45 µg/mL) in assay [6].
For `NCCCC[C@H](NC(=O)[C@H](Cc1c[nH]c2ccccc12)NC(=O)[C@H](Cc1c[nH]c2ccccc12)NC(=O)[C@H](CCCCN)NC(=O)[C@H](CCCN=C(N)N)NC(=O)[C@H](CCCN=C(N)N)NC(=O)[C@@H](N)CCCN=C(N)N)C(=O)O` [RRRKWWK], the MIC in the assay with Streptococcus mutans is at least 224 µM.
In the assay on Streptococcus mutans, `CC[C@H](C)[C@H](NC(=O)[C@H](CC(N)=O)NC(=O)[C@H](CCCCN)NC(=O)[C@H](CC(C)C)NC(=O)[C@H](CO)NC(=O)[C@H](CCC(N)=O)NC(=O)[C@H](CC(C)C)NC(=O)[C@@H](NC(=O)[C@@H](N)[C@@H](C)O)[C@@H](C)CC)C(=O)N[C@@H](Cc1ccccc1)C(=O)N[C@@H](CCCCN)C(=O)O` [TILQSLKNIFK] came in with an MIC of at least 95.8 µM.
Turning to `CC(C)C[C@H](NC(=O)[C@H](Cc1c[nH]c2ccccc12)NC(=O)[C@H](CCC(N)=O)NC(=O)[C@H](CC(C)C)NC(=O)[C@H](Cc1ccccc1)NC(=O)[C@@H](NC(=O)[C@H](CCCCN)NC(=O)[C@@H](N)Cc1ccccc1)[C@@H](C)O)C(=O)N[C@@H](Cc1cnc[nH]1)C(=O)N[C@@H](CCCN=C(N)N)C(=O)N[C@@H](Cc1ccccc1)C(N)=O` [FKTFLQWLHRF], the MIC in the assay on Streptococcus mutans turned out to be 21 µM (≈ 32 µg/mL). This lies in the double-digit micromolar range.
The same measure, in the same setting: as for `CC(C)C[C@H](NC(=O)[C@@H](NC(=O)[C@H](CCCN=C(N)N)NC(=O)[C@H](CCCCN)NC(=O)[C@@H](NC(=O)[C@H](CCCCN)NC(=O)[C@H](CCC(N)=O)NC(=O)[C@H](C)NC(=O)[C@H](CC(C)C)NC(=O)[C@@H](N)CCCCN)C(C)C)C(C)C)C(=O)N[C@@H](CCCN=C(N)N)C(=O)O` [KLAQKVKRVLR], the figure is at least 93.4 µM.
As to `NC(N)=NCCC[C@H](NC(=O)[C@H](CCCN=C(N)N)NC(=O)[C@H](CCCN=C(N)N)NC(=O)[C@@H](N)CCCN=C(N)N)C(=O)N[C@@H](Cc1c[nH]c2ccccc12)C(=O)N[C@@H](Cc1c[nH]c2ccccc12)C(=O)N[C@@H](Cc1c[nH]c2ccccc12)C(=O)O` [RRRRWWW], the minimal inhibitory concentration (MIC) in [7] was found to be 125 µM (≈ 150 µg/mL); in the assay with Streptococcus mutans, 13.3 µM (≈ 16 µg/mL); in assay [8] it was 125 µM (≈ 150 µg/mL).
Take `CC(C)C[C@H](NC(=O)[C@H](CCCCN)NC(=O)[C@H](CCCCN)NC(=O)[C@H](CC(C)C)NC(=O)[C@H](CC(C)C)NC(=O)[C@H](CCCCN)NC(=O)[C@H](CCCCN)NC(=O)[C@H](CC(C)C)NC(=O)[C@H](CCCCN)NC(=O)[C@H](CCCCN)NC(=O)[C@H](CCCN=C(N)N)NC(=O)[C@H](CC(C)C)NC(=O)[C@H](CCCN=C(N)N)NC(=O)[C@H](CCCCN)NC(=O)[C@H](CC(C)C)NC(=O)[C@H](CCCN=C(N)N)NC(=O)CN)C(=O)N[C@@H](CO)C(N)=O` [GRLKRLRKKLKKLLKKLS]: the minimum inhibitory concentration (MIC) worked out at 4 µM (≈ 8.82 µg/mL) in assay [1]; 4 µM (≈ 8.82 µg/mL) in [2]; 8 µM (≈ 17.6 µg/mL) in [3]; 8 µM (≈ 17.6 µg/mL) in [4]; 2 µM (≈ 4.41 µg/mL) in assay [5]; 4 µM (≈ 8.82 µg/mL) in assay [6].
Regarding `CC[C@H](C)[C@H](N)C(=O)N[C@@H](CC(C)C)C(=O)N[C@@H](CCCCN)C(=O)N[C@@H](CC(C)C)C(=O)N[C@@H](Cc1ccccc1)C(=O)N[C@@H](CCCCN)C(=O)N[C@@H](CCCN=C(N)N)C(=O)N[C@H](C(=O)N[C@H](C(=O)N[C@@H](CCCCN)C(=O)N[C@@H](CCCN=C(N)N)C(=O)N[C@H](C(=O)N[C@@H](CC(C)C)C(=O)N[C@@H](CCCCN)C(=O)N[C@@H](Cc1ccccc1)C(=O)N[C@@H](CC(C)C)C(=O)N[C@@H](CCCN=C(N)N)C(=O)N[C@@H](CCCCN)C(=O)N[C@@H](CC(C)C)C(=O)O)[C@@H](C)CC)C(C)C)[C@@H](C)CC` [ILKLFKRIVKRILKFLRKL], the MIC in assay [1] was determined as 4 µM (≈ 9.7 µg/mL); in assay [2] it was 8 µM (≈ 19.4 µg/mL); in assay [3], 8 µM (≈ 19.4 µg/mL); in assay [4], 4 µM (≈ 9.7 µg/mL); in assay [5], 8 µM (≈ 19.4 µg/mL); in assay [6], 8 µM (≈ 19.4 µg/mL).
As to `C[C@H](NC(=O)[C@H](CO)NC(=O)[C@H](C)NC(=O)[C@H](Cc1ccccc1)NC(=O)[C@H](Cc1c[nH]c2ccccc12)NC(=O)[C@H](CCCN=C(N)N)NC(=O)[C@H](Cc1c[nH]c2ccccc12)NC(=O)[C@H](CCCN=C(N)N)NC(=O)[C@H](Cc1c[nH]c2ccccc12)NC(=O)[C@@H](N)CCCN=C(N)N)C(=O)N[C@@H](CO)C(=O)N[C@@H](C)C(=O)N[C@@H](CCCN=C(N)N)C(=O)N[C@@H](Cc1c[nH]c2ccccc12)C(=O)N[C@@H](CCCN=C(N)N)C(=O)N[C@@H](Cc1c[nH]c2ccccc12)C(=O)N[C@@H](CCCN=C(N)N)C(=O)N[C@@H](Cc1c[nH]c2ccccc12)C(=O)N[C@@H](Cc1ccccc1)C(N)=O` [RWRWRWFASASARWRWRWF], in the assay with Streptococcus mutans, the minimal inhibitory concentration (MIC) worked out at 5.81 µM (≈ 16 µg/mL).
The same measure, in the same setting: then `CC[C@H](C)[C@H](N)C(=O)N[C@@H](CCCCN)C(=O)N[C@@H](CCC(N)=O)C(=O)N[C@@H](CC(C)C)C(=O)N[C@@H](CC(C)C)C(=O)N[C@@H](Cc1cnc[nH]1)C(=O)N[C@@H](Cc1ccccc1)C(=O)N[C@@H](Cc1ccccc1)C(=O)N[C@@H](CCC(N)=O)C(=O)N[C@@H](CCCN=C(N)N)C(=O)N[C@@H](Cc1ccccc1)C(=O)NCC(=O)NCC(=O)NCC(=O)N[C@@H](CCCN=C(N)N)C(=O)N[C@@H](Cc1c[nH]c2ccccc12)C(=O)N[C@@H](CCCN=C(N)N)C(=O)N[C@@H](CCCN=C(N)N)C(=O)N[C@@H](CC(C)C)C(=O)N[C@@H](CC(C)C)C(=O)N[C@@H](CCCCN)C(=O)N[C@@H](CCCCN)C(=O)N[C@@H](CC(C)C)C(=O)N[C@@H](Cc1cnc[nH]1)C(=O)N[C@@H](Cc1cnc[nH]1)C(=O)N[C@@H](CC(C)C)C(=O)N[C@@H](CC(C)C)C(=O)N[C@@H](Cc1cnc[nH]1)C(N)=O` [IKQLLHFFQRFGGGRWRRLLKKLHHLLH], with 4.52 µM (≈ 16 µg/mL).
Consider `CC[C@H](C)[C@H](NC(=O)[C@H](CCCCN)NC(=O)[C@@H]1CCCN1C(=O)[C@H](CC(C)C)NC(=O)[C@@H](N)CCCCN)C(=O)N[C@@H](Cc1c[nH]c2ccccc12)C(=O)N[C@@H](Cc1c[nH]c2ccccc12)C(=O)N[C@H](C(=O)N[C@@H](CCCCN)C(=O)N[C@H](C(=O)N1CCC[C@H]1C(=O)N[C@@H](CCCCN)C(N)=O)C(C)C)[C@@H](C)CC` [KLPKIWWIKVPK], for which the MIC worked out at 4.07 µM (≈ 6.25 µg/mL) in [1]; 8.14 µM (≈ 12.5 µg/mL) in assay [2]; 8.14 µM (≈ 12.5 µg/mL) in assay [3]; 4.07 µM (≈ 6.25 µg/mL) in assay [4]; 4.07 µM (≈ 6.25 µg/mL) in [5]; 4.07 µM (≈ 6.25 µg/mL) in assay [6].
In the case of `CC[C@H](C)[C@@H]1NC(=O)[C@H](C)NC(=O)[C@@H](NC(=O)[C@H](Cc2ccccc2)NC(=O)[C@@H](NC(=O)[C@@H](NC(=O)[C@@H]2CCCN2C(=O)[C@H](CC(C)C)NC(=O)[C@@H](NC(=O)[C@H](Cc2cnc[nH]2)NC(=O)[C@@H](NC(=O)[C@H](C)NC(=O)[C@@H](NC(=O)[C@H](CC(C)C)NC(=O)[C@H](CC(C)C)NC(=O)[C@@H](NC(=O)[C@H](C)NC(=O)[C@@H]2CCCN2C(=O)[C@H](CC(C)C)NC(=O)[C@@H](N)Cc2ccccc2)C(C)C)C(C)C)[C@@H](C)O)C(C)C)[C@@H](C)O)C(C)C)CSSC[C@@H](C(=O)O)NC(=O)[C@H](CCCCN)NC(=O)[C@H](CCCN=C(N)N)NC(=O)[C@H]([C@@H](C)O)NC1=O` [FLPAVLLVATHVLPTVFCAITRKC], the minimum inhibitory concentration (MIC) in [9] turned out to be 1.3 µM (≈ 3.4 µg/mL); in assay [10], 10.4 µM (≈ 27.2 µg/mL); in [11] it was 2.6 µM (≈ 6.79 µg/mL); in assay [12], 2.6 µM (≈ 6.79 µg/mL).
